Columns and labels:
[1] = tested on: Proto-oncogene tyrosine-protein kinase receptor Ret (Homo sapiens), P07949 [M918T]; conditions: Compound concentration 1000.0 nM
[2] = tested on: Tyrosine-protein kinase ABL1 (Homo sapiens), P00519 [Q252H]; conditions: Compound concentration 1000.0 nM
[3] = tested on: Epidermal growth factor receptor (Homo sapiens), P00533 [UNDEFINED MUTATION]; conditions: Compound concentration 1000.0 nM
[4] = biological target: Cyclin-dependent kinase 14 (Homo sapiens) (UniProt O94921); conditions: Compound concentration 1000.0 nM
[5] = biological target: Histamine H2 receptor (Homo sapiens) (UniProt P25021); assay: H2 (h) CEREP ligand profiling; conditions: filed as antagonist, Compound concentration 10.0 uM
[6] = biological target: Activin receptor type-1-like (Homo sapiens) (UniProt P37023); conditions: Compound concentration 1000.0 nM
[7] = biological target: Wee1-like protein kinase 2 (Homo sapiens) (UniProt P0C1S8); conditions: Compound concentration 1000.0 nM
[8] = biological target: Casein kinase I isoform gamma-1 (Homo sapiens) (UniProt Q9HCP0); conditions: Compound concentration 1000.0 nM
[9] = biological target: 5'-AMP-activated protein kinase catalytic subunit alpha-2 (Homo sapiens) (UniProt P54646); conditions: Compound concentration 1000.0 nM
[10] = biological target: Beta-adrenergic receptor kinase 1 (Homo sapiens) (UniProt P25098); conditions: Compound concentration 1000.0 nM
[11] = biological target: Tyrosine-protein kinase ZAP-70 (Homo sapiens) (UniProt P43403); conditions: Compound concentration 1000.0 nM
[12] = biological target: Inhibitor of nuclear factor kappa-B kinase subunit epsilon (Homo sapiens) (UniProt Q14164); conditions: Compound concentration 1000.0 nM
[13] = biological target: Cyclin-dependent kinase 5 (Homo sapiens) (UniProt Q00535); conditions: Compound concentration 1000.0 nM
[14] = biological target: Mitogen-activated protein kinase kinase kinase kinase 1 (Homo sapiens) (UniProt Q92918); conditions: Compound concentration 1000.0 nM
[15] = biological target: Serine/threonine-protein kinase MRCK alpha (Homo sapiens) (UniProt Q5VT25); conditions: Compound concentration 1000.0 nM
[16] = biological target: Dual specificity tyrosine-phosphorylation-regulated kinase 1A (Homo sapiens) (UniProt Q13627); conditions: Compound concentration 1000.0 nM
[17] = biological target: Mitogen-activated protein kinase kinase kinase 7 (Homo sapiens) (UniProt O43318); conditions: Compound concentration 1000.0 nM
[18] = biological target: Cyclin-dependent kinase-like 5 (Homo sapiens) (UniProt O76039); conditions: Compound concentration 1000.0 nM
[19] = biological target: Cannabinoid receptor 2 (Homo sapiens) (UniProt P34972); assay: CB2 (h) CEREP ligand profiling; conditions: filed as agonist, Compound concentration 10.0 uM
[20] = biological target: Protein-tyrosine kinase 2-beta (Homo sapiens) (UniProt Q14289); conditions: Compound concentration 1000.0 nM
[21] = biological target: Phosphatidylinositol 4-phosphate 5-kinase type-1 alpha (Homo sapiens) (UniProt Q99755); conditions: Compound concentration 1000.0 nM
[22] = biological target: Tyrosine-protein kinase Srms (Homo sapiens) (UniProt Q9H3Y6); conditions: Compound concentration 1000.0 nM
[23] = biological target: Serine/threonine-protein kinase ICK (Homo sapiens) (UniProt Q9UPZ9); conditions: Compound concentration 1000.0 nM
[24] = biological target: Ephrin type-A receptor 1 (Homo sapiens) (UniProt P21709); conditions: Compound concentration 1000.0 nM
[25] = biological target: Serine/threonine-protein kinase OSR1 (Homo sapiens) (UniProt O95747); conditions: Compound concentration 1000.0 nM
[26] = biological target: Interleukin-1 receptor-associated kinase 1 (Homo sapiens) (UniProt P51617); conditions: Compound concentration 1000.0 nM
[27] = biological target: Serine/threonine-protein kinase 32B (Homo sapiens) (UniProt Q9NY57); conditions: Compound concentration 1000.0 nM
[28] = biological target: Sodium-dependent serotonin transporter (Homo sapiens, UniProt P31645); assay: 5-HT transporter (h) CEREP ligand profiling; conditions: filed as antagonist, Compound concentration 10.0 uM
[29] = biological target: Dual specificity mitogen-activated protein kinase kinase 5 (Homo sapiens) (UniProt Q13163); conditions: Compound concentration 1000.0 nM
[30] = biological target: Beta-2 adrenergic receptor (Homo sapiens) (UniProt P07550); conditions: Compound concentration 10.0 uM
[31] = biological target: Serine/threonine-protein kinase mTOR (Homo sapiens) (UniProt P42345); conditions: Compound concentration 1000.0 nM
[32] = biological target: Dual specificity mitogen-activated protein kinase kinase 4 (Homo sapiens) (UniProt P45985); conditions: Compound concentration 1000.0 nM
[33] = tested on: Tyrosine-protein kinase ABL1 (Homo sapiens), P00519 [H396P]; conditions: Compound concentration 1000.0 nM
[34] = biological target: Cyclin-dependent kinase 8 (Homo sapiens) (UniProt P49336); conditions: Compound concentration 1000.0 nM
[35] = biological target: Serine/threonine-protein kinase NLK (Homo sapiens) (UniProt Q9UBE8); conditions: Compound concentration 1000.0 nM
[36] = biological target: Mitogen-activated protein kinase kinase kinase kinase 3 (Homo sapiens) (UniProt Q8IVH8); conditions: Compound concentration 1000.0 nM
[37] = tested on: Tyrosine-protein kinase ABL1 (Homo sapiens), P00519 [T315I]; conditions: Compound concentration 1000.0 nM
[38] = biological target: RAC-alpha serine/threonine-protein kinase (Homo sapiens) (UniProt P31749); conditions: Compound concentration 1000.0 nM
[39] = biological target: SRSF protein kinase 3 (Homo sapiens) (UniProt Q9UPE1); conditions: Compound concentration 1000.0 nM
[40] = biological target: Death-associated protein kinase 1 (Homo sapiens) (UniProt P53355); conditions: Compound concentration 1000.0 nM
[41] = biological target: Serine/threonine-protein kinase TBK1 (Homo sapiens) (UniProt Q9UHD2); conditions: Compound concentration 1000.0 nM
[42] = biological target: Histamine H1 receptor (Homo sapiens) (UniProt P35367); assay: H1 (h) CEREP ligand profiling; conditions: filed as antagonist, Compound concentration 10.0 uM
[43] = biological target: Serine/threonine-protein kinase B-raf (Homo sapiens) (UniProt P15056); conditions: Compound concentration 1000.0 nM
[44] = biological target: Serine/threonine-protein kinase DCLK3 (Homo sapiens) (UniProt Q9C098); conditions: Compound concentration 1000.0 nM
[45] = biological target: Tyrosine-protein kinase Fer (Homo sapiens) (UniProt P16591); conditions: Compound concentration 1000.0 nM

Sequence of Mitogen-activated protein kinase kinase kinase 7 (Homo sapiens) (O43318 whole entry): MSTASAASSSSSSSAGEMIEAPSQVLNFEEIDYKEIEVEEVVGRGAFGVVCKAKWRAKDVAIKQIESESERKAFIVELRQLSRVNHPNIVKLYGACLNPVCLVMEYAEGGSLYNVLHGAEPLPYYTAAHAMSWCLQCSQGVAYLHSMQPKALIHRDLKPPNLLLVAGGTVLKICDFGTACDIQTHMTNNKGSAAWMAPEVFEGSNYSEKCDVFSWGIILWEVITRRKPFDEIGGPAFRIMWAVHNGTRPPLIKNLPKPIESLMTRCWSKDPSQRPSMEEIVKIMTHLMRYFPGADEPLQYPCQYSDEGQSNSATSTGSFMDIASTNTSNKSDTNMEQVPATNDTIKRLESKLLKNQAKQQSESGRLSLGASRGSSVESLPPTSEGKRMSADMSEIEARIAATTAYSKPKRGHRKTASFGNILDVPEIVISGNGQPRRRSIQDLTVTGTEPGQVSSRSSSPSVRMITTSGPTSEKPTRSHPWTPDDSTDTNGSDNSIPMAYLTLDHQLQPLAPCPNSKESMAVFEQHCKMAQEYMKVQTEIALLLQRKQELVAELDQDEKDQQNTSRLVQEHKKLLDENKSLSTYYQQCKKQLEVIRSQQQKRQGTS
Sequence of Serine/threonine-protein kinase DCLK3 (Homo sapiens) (Q9C098 whole entry): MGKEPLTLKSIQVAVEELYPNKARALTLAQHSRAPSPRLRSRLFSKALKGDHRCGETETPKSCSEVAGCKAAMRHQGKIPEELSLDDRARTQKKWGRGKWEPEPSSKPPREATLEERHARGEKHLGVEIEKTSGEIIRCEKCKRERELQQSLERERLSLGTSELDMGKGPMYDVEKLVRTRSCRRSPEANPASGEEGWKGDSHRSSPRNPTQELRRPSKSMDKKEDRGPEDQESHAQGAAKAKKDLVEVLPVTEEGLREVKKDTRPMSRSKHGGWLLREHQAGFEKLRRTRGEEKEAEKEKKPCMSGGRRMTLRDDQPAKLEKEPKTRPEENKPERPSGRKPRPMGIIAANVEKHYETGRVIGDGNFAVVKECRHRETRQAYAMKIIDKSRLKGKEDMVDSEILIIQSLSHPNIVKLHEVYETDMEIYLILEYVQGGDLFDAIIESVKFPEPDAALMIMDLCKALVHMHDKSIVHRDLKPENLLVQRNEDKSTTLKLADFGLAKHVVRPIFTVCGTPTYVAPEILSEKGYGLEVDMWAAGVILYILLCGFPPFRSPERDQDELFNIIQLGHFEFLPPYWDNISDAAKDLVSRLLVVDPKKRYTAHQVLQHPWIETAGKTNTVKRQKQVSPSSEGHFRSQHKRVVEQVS
Sequence of Cannabinoid receptor 2 (Homo sapiens) (P34972 whole entry): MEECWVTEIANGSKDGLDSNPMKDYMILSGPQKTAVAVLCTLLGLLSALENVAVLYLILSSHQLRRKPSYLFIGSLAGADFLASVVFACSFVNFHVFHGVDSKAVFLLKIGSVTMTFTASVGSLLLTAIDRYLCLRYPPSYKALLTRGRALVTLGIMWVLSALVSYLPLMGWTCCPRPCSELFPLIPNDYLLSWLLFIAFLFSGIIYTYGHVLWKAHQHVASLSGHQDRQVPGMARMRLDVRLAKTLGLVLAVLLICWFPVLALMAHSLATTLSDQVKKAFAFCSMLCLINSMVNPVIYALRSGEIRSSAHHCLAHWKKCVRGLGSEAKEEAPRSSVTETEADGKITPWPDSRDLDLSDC
Sequence of Phosphatidylinositol 4-phosphate 5-kinase type-1 alpha (Homo sapiens) (Q99755 whole entry): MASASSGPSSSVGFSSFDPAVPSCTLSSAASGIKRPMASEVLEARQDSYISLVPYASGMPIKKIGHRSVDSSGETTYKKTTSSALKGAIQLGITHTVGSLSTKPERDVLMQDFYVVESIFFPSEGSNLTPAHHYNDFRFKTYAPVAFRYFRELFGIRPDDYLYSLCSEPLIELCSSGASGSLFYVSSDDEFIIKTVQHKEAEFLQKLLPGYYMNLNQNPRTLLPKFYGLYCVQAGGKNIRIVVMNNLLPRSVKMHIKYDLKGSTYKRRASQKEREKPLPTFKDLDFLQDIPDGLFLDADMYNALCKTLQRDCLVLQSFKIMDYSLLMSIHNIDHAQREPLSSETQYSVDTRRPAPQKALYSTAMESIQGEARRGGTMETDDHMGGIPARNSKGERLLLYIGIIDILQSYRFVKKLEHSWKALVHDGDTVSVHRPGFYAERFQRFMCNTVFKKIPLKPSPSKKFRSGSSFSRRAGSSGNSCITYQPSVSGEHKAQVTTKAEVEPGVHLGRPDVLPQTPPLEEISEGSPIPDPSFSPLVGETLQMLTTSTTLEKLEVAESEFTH
Sequence of Histamine H1 receptor (Homo sapiens) (P35367 whole entry): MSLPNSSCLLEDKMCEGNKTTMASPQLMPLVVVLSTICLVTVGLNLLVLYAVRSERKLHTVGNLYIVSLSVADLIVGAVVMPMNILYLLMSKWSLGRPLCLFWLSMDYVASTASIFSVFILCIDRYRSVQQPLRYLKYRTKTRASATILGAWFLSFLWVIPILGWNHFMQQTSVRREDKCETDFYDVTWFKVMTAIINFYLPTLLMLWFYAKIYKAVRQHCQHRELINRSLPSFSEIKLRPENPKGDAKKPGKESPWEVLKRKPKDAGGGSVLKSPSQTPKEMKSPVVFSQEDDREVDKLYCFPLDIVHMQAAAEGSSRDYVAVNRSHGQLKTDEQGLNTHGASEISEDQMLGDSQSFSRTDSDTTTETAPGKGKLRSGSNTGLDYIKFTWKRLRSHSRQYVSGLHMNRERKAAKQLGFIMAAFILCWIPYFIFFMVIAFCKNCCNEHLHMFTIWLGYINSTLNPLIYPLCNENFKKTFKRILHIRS
Sequence of Death-associated protein kinase 1 (Homo sapiens) (P53355 whole entry, looked up): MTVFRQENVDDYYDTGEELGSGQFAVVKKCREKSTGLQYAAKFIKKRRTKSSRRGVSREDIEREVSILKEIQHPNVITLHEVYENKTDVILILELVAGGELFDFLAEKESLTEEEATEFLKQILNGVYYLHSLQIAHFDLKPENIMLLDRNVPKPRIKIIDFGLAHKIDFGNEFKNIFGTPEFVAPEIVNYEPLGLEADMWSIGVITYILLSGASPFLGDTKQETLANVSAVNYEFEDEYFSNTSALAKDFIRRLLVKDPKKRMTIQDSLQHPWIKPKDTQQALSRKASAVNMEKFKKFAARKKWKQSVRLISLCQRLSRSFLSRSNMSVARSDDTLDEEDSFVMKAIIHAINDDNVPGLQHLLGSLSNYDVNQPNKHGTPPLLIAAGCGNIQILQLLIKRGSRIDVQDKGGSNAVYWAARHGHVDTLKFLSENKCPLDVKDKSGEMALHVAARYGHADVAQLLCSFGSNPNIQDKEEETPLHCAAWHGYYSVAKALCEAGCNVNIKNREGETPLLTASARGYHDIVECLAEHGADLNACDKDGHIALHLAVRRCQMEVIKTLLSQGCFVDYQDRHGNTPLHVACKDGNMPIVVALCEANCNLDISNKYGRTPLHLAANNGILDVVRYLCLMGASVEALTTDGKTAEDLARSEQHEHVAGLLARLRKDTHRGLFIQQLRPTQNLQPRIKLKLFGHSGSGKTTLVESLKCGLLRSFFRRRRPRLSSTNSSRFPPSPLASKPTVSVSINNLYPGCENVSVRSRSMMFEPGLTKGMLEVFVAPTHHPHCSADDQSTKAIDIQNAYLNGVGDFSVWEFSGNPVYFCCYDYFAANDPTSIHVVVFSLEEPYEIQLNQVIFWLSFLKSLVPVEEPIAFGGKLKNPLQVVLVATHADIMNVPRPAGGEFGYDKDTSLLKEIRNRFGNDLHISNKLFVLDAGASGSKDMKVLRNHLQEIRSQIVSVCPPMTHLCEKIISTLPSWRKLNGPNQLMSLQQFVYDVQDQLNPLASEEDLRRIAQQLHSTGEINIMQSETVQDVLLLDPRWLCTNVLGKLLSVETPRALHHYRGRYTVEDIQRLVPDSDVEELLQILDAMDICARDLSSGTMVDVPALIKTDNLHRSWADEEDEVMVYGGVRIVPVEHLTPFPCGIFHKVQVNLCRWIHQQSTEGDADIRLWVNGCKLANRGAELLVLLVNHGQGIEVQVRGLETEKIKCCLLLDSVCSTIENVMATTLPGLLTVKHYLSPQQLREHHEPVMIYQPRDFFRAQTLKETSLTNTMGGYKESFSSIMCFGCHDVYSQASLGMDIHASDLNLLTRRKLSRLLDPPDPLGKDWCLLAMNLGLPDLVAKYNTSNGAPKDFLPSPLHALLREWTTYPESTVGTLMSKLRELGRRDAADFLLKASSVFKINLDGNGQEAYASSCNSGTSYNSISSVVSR
Sequence of Serine/threonine-protein kinase NLK (Homo sapiens) (Q9UBE8 whole entry): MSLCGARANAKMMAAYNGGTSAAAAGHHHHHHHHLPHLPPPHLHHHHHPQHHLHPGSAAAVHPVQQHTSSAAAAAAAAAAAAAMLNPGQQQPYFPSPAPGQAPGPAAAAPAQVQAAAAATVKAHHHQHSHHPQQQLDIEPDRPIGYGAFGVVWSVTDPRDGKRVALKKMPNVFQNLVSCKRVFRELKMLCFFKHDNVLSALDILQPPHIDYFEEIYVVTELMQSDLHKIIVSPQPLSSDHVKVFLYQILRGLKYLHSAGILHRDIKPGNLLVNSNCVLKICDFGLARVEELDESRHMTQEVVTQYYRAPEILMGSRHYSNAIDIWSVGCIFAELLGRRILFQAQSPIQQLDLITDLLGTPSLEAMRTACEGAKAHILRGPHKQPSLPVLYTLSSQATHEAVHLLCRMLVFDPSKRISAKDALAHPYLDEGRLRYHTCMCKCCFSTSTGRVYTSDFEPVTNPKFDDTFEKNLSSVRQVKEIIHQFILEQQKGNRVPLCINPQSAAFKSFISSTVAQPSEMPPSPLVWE
Sequence of Dual specificity mitogen-activated protein kinase kinase 4 (Homo sapiens) (P45985 whole entry): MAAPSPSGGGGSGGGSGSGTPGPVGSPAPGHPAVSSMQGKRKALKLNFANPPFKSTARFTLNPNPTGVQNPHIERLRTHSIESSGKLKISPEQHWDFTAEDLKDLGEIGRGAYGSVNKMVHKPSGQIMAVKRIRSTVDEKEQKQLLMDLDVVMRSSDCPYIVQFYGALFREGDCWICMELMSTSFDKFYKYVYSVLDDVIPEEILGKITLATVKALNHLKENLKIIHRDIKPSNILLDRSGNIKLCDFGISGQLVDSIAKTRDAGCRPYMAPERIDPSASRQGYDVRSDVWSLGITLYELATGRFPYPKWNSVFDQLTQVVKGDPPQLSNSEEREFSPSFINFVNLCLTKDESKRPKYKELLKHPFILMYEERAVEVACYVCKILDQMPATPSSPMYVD

SMILES: CNC(=O)Nc1ccc2c(c1)CC[C@@]21OC(=O)N(CC(=O)N(Cc2ccc(F)cc2)[C@@H](C)C(F)(F)F)C1=O [A-485]
- residual activity [1]: 95%
- residual activity [2]: 81%
- residual activity [3]: 95%
- residual activity [4]: 79%
- inhibition [5]: -9%
- residual activity [6]: 72%
- residual activity [7]: 75%
- residual activity [8]: 94%
- residual activity [9]: 99%
- residual activity [10]: 74%
- residual activity [11]: 73%
- residual activity [12]: 51%
- residual activity [13]: 84%
- residual activity [14]: 99%
- residual activity [15]: 100%
- residual activity [16]: 64%
- residual activity [17]: 77%
- residual activity [18]: 69%
- inhibition [19]: 67%
- residual activity [20]: 73%
- residual activity [21]: 95%
- residual activity [22]: 83%
- residual activity [23]: 72%
- residual activity [24]: 88%
- residual activity [25]: 80%
- residual activity [26]: 71%
- residual activity [27]: 90%
- inhibition [28]: 99%
- residual activity [29]: 83%
- inhibition [30]: 19%
- residual activity [31]: 92%
- residual activity [32]: 100%
- residual activity [33]: 49%
- residual activity [34]: 100%
- residual activity [35]: 82%
- residual activity [36]: 76%
- residual activity [37]: 100%
- residual activity [38]: 91%
- residual activity [39]: 95%
- residual activity [40]: 96%
- residual activity [41]: 83%
- inhibition [42]: 22%
- residual activity [43]: 93%
- residual activity [44]: 83%
- residual activity [45]: 87%

SMILES: CNC(=O)Nc1ccc2c(c1)[C@@]1(CC2)OC(=O)N(CC(=O)N(Cc2ccc(F)cc2)[C@@H](C)C(F)(F)F)C1=O [A-486]
- residual activity [1]: 100%
- residual activity [2]: 97%
- residual activity [3]: 96%
- residual activity [4]: 100%
- inhibition [5]: 6%
- residual activity [6]: 78%
- residual activity [7]: 100%
- residual activity [8]: 78%
- residual activity [9]: 57%
- residual activity [10]: 76%
- residual activity [11]: 100%
- residual activity [12]: 75%
- residual activity [13]: 79%
- residual activity [14]: 90%
- residual activity [15]: 98%
- residual activity [16]: 77%
- residual activity [17]: 81%
- residual activity [18]: 82%
- inhibition [19]: 4%
- residual activity [20]: 83%
- residual activity [21]: 89%
- residual activity [22]: 88%
- residual activity [23]: 67%
- residual activity [24]: 100%
- residual activity [25]: 65%
- residual activity [26]: 88%
- residual activity [27]: 67%
- inhibition [28]: 40%
- residual activity [29]: 89%
- inhibition [30]: 24.7%
- residual activity [31]: 100%
- residual activity [32]: 95%
- residual activity [33]: 53%
- residual activity [34]: 96%
- residual activity [35]: 77%
- residual activity [36]: 89%
- residual activity [37]: 87%
- residual activity [38]: 77%
- residual activity [39]: 100%
- residual activity [40]: 100%
- residual activity [41]: 84%
- inhibition [42]: 7%
- residual activity [43]: 100%
- residual activity [44]: 81%
- residual activity [45]: 79%

Source: ChEMBL document CHEMBL4507259 (2021)
